Experiment [1] addresses T1, PPARα (Homo sapiens, UniProt Q07869).
T1 construct: gene PPARA
T1 sequence (Q07869 196-468 limits assumed): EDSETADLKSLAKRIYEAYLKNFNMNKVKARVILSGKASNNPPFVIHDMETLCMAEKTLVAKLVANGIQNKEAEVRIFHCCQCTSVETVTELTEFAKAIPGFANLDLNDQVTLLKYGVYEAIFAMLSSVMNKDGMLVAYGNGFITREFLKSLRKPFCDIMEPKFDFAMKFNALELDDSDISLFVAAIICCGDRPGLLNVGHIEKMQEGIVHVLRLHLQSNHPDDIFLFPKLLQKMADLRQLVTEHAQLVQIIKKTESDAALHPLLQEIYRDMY
Nature of the experiment: TR-FRET competitive binding assay; also ultrafiltration LC-MS and cell transactivation.

The target in experiment [2] is T1, PPARα. Nature of the experiment: TR-FRET competitive binding assay. A general note: In TR-FRET formats the signal depends on donor and acceptor labels being close together.
Experiment [3] deals with T2, PPARγ (Homo sapiens, UniProt P37231).
T2 construct: gene PPARG
T2 sequence (P37231 232-505 limits assumed): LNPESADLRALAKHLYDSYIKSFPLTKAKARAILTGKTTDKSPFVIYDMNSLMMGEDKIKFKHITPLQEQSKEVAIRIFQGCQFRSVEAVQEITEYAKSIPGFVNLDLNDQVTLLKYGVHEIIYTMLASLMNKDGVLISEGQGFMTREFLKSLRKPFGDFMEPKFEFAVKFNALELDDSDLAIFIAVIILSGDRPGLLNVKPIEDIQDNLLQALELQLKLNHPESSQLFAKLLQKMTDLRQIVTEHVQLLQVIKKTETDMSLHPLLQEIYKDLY
Nature of the experiment: TR-FRET competitive binding assay.

Consider 3 molecules from PMC6331909, “Identification of Eupatilin from Artemisia argyi as a Selective PPARα Agonist Using Affinity Selection Ultrafiltration LC-MS” (Molecules, 2015).

Regarding `COc1ccc(-c2cc(=O)c3c(O)c(OC)c(O)cc3o2)cc1OC` [eupatilin], the IC50 (commonly the concentration that inhibits the measured activity by half) in experiment [1] worked out at 1180 nM.

In turn, `CCC(=O)NC[C@H](Cc1ccc(OCCc2nc(-c3ccccc3)oc2C)cc1)N/C(C)=C\C(=O)c1ccc(C(F)(F)F)cc1` [GW6471] showed a concentration for half-maximal inhibition (IC50) in experiment [2] of 227 nM.

As for `O=C(Nc1ccccc1)c1cc([N+](=O)[O-])ccc1Cl` [GW9662], the IC50 in experiment [3] was determined as 24.3 nM.
